Test results from PubChem BioAssay (NCI).
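Five concentrations, 48 hours, 96-well plates. TGI denotes the concentration required for complete inhibition of growth.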

Assays:
Experiment in all cases: DTP human tumour cell line panel, 48 h
HCT-15 colon = system: HCT-15 colon
MDA-N = system: MDA-N
MOLT-4 leukemia = system: MOLT-4 leukemia
NCI-H522 lung = system: NCI-H522 lung
OVCAR-4 ovarian = system: OVCAR-4 ovarian
PC-3 prostate = system: PC-3 prostate
SF-268 CNS = system: SF-268 CNS
SF-539 CNS = system: SF-539 CNS
SNB-19 CNS = system: SNB-19 CNS
SW-620 colon = system: SW-620 colon
T-47D breast = system: T-47D breast

Cc1cc(S(=O)(=O)/N=C(/NN)Nc2ccc(Cl)cc2)c(S)cc1Cl
TGI (HCT-15 colon): 53 µM | TGI (MDA-N): 22.5 µM | TGI (MOLT-4 leukemia): 58.9 µM | TGI (NCI-H522 lung): 42.9 µM | TGI (OVCAR-4 ovarian): 62.8 µM | TGI (PC-3 prostate): > 100 µM | TGI (SF-268 CNS): 61.8 µM | TGI (SF-539 CNS): 42.6 µM | TGI (SNB-19 CNS): 25.3 µM | TGI (SW-620 colon): 35.9 µM | TGI (T-47D breast): 14.8 µM

C#CCOC(=O)c1ccc(OC(C)=O)cc1
TGI (HCT-15 colon): > 100 µM | TGI (MDA-N): > 100 µM | TGI (MOLT-4 leukemia): > 100 µM | TGI (NCI-H522 lung): > 100 µM | TGI (OVCAR-4 ovarian): > 100 µM | TGI (PC-3 prostate): > 100 µM | TGI (SF-268 CNS): > 100 µM | TGI (SF-539 CNS): > 100 µM | TGI (SNB-19 CNS): > 100 µM | TGI (SW-620 colon): > 100 µM | TGI (T-47D breast): > 100 µM

NC(=O)CN1C=CCC(C(N)=O)=C1
TGI (HCT-15 colon): > 100 µM | TGI (MDA-N): > 100 µM | TGI (MOLT-4 leukemia): > 100 µM | TGI (NCI-H522 lung): > 100 µM | TGI (OVCAR-4 ovarian): > 100 µM | TGI (PC-3 prostate): > 100 µM | TGI (SF-268 CNS): > 100 µM | TGI (SF-539 CNS): > 100 µM | TGI (SNB-19 CNS): > 100 µM | TGI (SW-620 colon): > 100 µM | TGI (T-47D breast): > 100 µM

COC1=CC(=O)N(C)C(O)C1(C#N)OC1OC(CO)C(O)C(O)C1O (stereo unspecified)
TGI (HCT-15 colon): > 100 µM | TGI (MDA-N): > 100 µM | TGI (MOLT-4 leukemia): > 100 µM | TGI (NCI-H522 lung): > 100 µM | TGI (OVCAR-4 ovarian): > 100 µM | TGI (PC-3 prostate): > 100 µM | TGI (SF-268 CNS): > 100 µM | TGI (SF-539 CNS): > 100 µM | TGI (SNB-19 CNS): > 100 µM | TGI (SW-620 colon): > 100 µM | TGI (T-47D breast): > 100 µM

Oc1ccc(Oc2cc3c(cc2Oc2ccc(O)cc2)-c2nc-3nc3[nH]c(nc4nc(nc5[nH]c(n2)c2cc(Oc6ccc(O)cc6)c(Oc6ccc(O)cc6)cc52)-c2cc(Oc5ccc(O)cc5)c(Oc5ccc(O)cc5)cc2-4)c2cc(Oc4ccc(O)cc4)c(Oc4ccc(O)cc4)cc32)cc1
TGI (HCT-15 colon): > 100 µM | TGI (MDA-N): > 100 µM | TGI (MOLT-4 leukemia): > 100 µM | TGI (NCI-H522 lung): > 100 µM | TGI (OVCAR-4 ovarian): > 100 µM | TGI (PC-3 prostate): > 100 µM | TGI (SF-268 CNS): > 100 µM | TGI (SF-539 CNS): > 100 µM | TGI (SNB-19 CNS): > 100 µM | TGI (SW-620 colon): > 100 µM | TGI (T-47D breast): > 100 µM

O=C1NC(N2CCOCC2)=N/C1=C\c1ccc(O)cc1
TGI (HCT-15 colon): > 100 µM | TGI (MDA-N): > 100 µM | TGI (MOLT-4 leukemia): > 100 µM | TGI (NCI-H522 lung): > 100 µM | TGI (OVCAR-4 ovarian): > 100 µM | TGI (PC-3 prostate): > 100 µM | TGI (SF-268 CNS): > 100 µM | TGI (SF-539 CNS): > 100 µM | TGI (SNB-19 CNS): > 100 µM | TGI (SW-620 colon): > 100 µM | TGI (T-47D breast): > 100 µM

CC(=O)C(C)(C)CCC(C)(C)C(C)=O
TGI (HCT-15 colon): > 100 µM | TGI (MDA-N): > 100 µM | TGI (MOLT-4 leukemia): > 100 µM | TGI (NCI-H522 lung): > 100 µM | TGI (OVCAR-4 ovarian): > 100 µM | TGI (PC-3 prostate): > 100 µM | TGI (SF-268 CNS): > 100 µM | TGI (SF-539 CNS): > 100 µM | TGI (SNB-19 CNS): > 100 µM | TGI (SW-620 colon): > 100 µM | TGI (T-47D breast): > 100 µM

OC(NN=C1CCCC1)(C(F)(F)Cl)C(F)(F)Cl
TGI (HCT-15 colon): > 10 µM | TGI (MDA-N): > 10 µM | TGI (MOLT-4 leukemia): > 10 µM | TGI (NCI-H522 lung): > 10 µM | TGI (OVCAR-4 ovarian): > 10 µM | TGI (PC-3 prostate): > 10 µM | TGI (SF-268 CNS): > 10 µM | TGI (SF-539 CNS): > 10 µM | TGI (SNB-19 CNS): > 10 µM | TGI (SW-620 colon): > 10 µM | TGI (T-47D breast): > 10 µM

CC1CCC2(OC1)OC1C(O)C3C4CCC5CC(OC6OC(CO)C(OC7OC(CO)C(O)C(OC8OCC(O)C(O)C8O)C7OC7OC(CO)C(O)C(OC8OC(CO)C(O)C(O)C8O)C7O)C(O)C6O)C(O)CC5(C)C4CCC3(C)C1C2C (stereo unspecified)
TGI (HCT-15 colon): 12.2 µM | TGI (MDA-N): 7.94 µM | TGI (MOLT-4 leukemia): 15.1 µM | TGI (NCI-H522 lung): 3.79 µM | TGI (OVCAR-4 ovarian): 4.04 µM | TGI (PC-3 prostate): 10.3 µM | TGI (SF-268 CNS): 4.85 µM | TGI (SF-539 CNS): 10.9 µM | TGI (SNB-19 CNS): 4.34 µM | TGI (SW-620 colon): 98.4 µM | TGI (T-47D breast): 10.4 µM

Cc1nc(Nc2ccccc2Cl)sc1C(=O)CC(=O)C(N)=O
TGI (HCT-15 colon): > 100 µM | TGI (MDA-N): > 100 µM | TGI (MOLT-4 leukemia): > 100 µM | TGI (NCI-H522 lung): 6.79 µM | TGI (OVCAR-4 ovarian): > 100 µM | TGI (PC-3 prostate): > 100 µM | TGI (SF-268 CNS): > 100 µM | TGI (SF-539 CNS): > 100 µM | TGI (SNB-19 CNS): > 100 µM | TGI (SW-620 colon): > 100 µM | TGI (T-47D breast): > 100 µM

Oc1ccc(-c2nc3ccccc3s2)cc1
TGI (HCT-15 colon): > 100 µM | TGI (MDA-N): > 100 µM | TGI (MOLT-4 leukemia): > 100 µM | TGI (NCI-H522 lung): 47.9 µM | TGI (OVCAR-4 ovarian): > 100 µM | TGI (PC-3 prostate): > 100 µM | TGI (SF-268 CNS): 90.2 µM | TGI (SF-539 CNS): > 100 µM | TGI (SNB-19 CNS): > 100 µM | TGI (SW-620 colon): > 100 µM | TGI (T-47D breast): 70 µM
